Assay results: patent US7959743B2, “Lithium salts of fatty alcohol sulphates for cleaning boreholes, boring devices and borings” (priority 2004, dated 2011)

Tested on: Corophium volutator
Details: in vivo

Row | Substance | Corophium volutator 10 d, LC 50
1 | Soya polyol ethoxylate [V3] | 1888 mg/kg
2 | C8-10 alkyl-1,5-glucoside [V4] | None after 433 mg/kg
